Measured values from PubChem BioAssay AID2060498 (Molecular Pharmacology Branch, DTP, NCI, 2025).

Tested on: 171881-019-R-J1-PDC tumor spheroids, viability
Assay: Anticancer human tumor 171881-019-R-J1-PDC patient-derived invasive breast carcinoma cell line growth inhibition [GQUAD]
Conditions: spheroids with HUVEC and MSC; for IC50: curve of first compound; for viability, T/C: stronger effect = lower value
Description: DNA G-quadruplex Stabilizer Agents in Combinations in Complex Spheroids
A high-throughput screen of multi-cell type tumor spheroids was designed to identify active combinations of DNA G-quadruplex stabilizer agents and targeted small molecules. Complex spheroids include a stromal component modeled by human endothelial cells (HUVEC) and fibroblasts modeled by human mesenchymal stem cells (MSCs). The concentration ranges selected for each drug and investigational agent were based upon clinically achievable concentrations if the clinical Cmax of the agent was known.
Compounds. The drugs and investigational agents: pidnarulex (CX-5461; NSC782164), APTO-253 (NSC789042), BRACO-19 (NSC847499), peposertib (NSC802822), ceralasertib (NSC780249), elimusertib (NSC800525), camonsertib (NSC841442), AZD-1390 (NSC803789), olaparib (NSC753686), talazoparib (NSC767125), ART-558 (NSC835418), sotorasib (NSC818433), MRTX-1133 (NSC836407), SN-38 (NSC673596), topotecan (NSC609699), etoposide (NSC141540), doxorubicin (NSC123127), gemcitabine (NSC613327), 5-fluorouracil (NSC19893), paclitaxel (NSC125973), vemurafenib (NSC761431), panobinostat (NSC761190), R-306465 (JNJ-16241199; NSC773264), adavosertib (NSC754352), TP-3654 (NSC805149), carboplatin (NSC241240), KSQ-4279 (NSC840948), and staurosporine (NSC755774) were obtained from the National Cancer Institute (NCI) Developmental Therapeutics Program Chemical Repository (34). The FDA-approved anticancer drug set is available from the NCI Developmental Therapeutics Program. […] The stock solutions were prepared in dimethyl sulfoxide (DMSO, Sigma-Aldrich, St. Louis, MO, cat. D2650) at 800-fold the tested concentration and stored at -70 degrees C prior to their use. All drugs and investigational agents were tested over a range starting from a high concentration at or near the clinical Cmax and decreasing in half-log increments. If the clinical Cmax for an agent had not been determined, the highest concentration tested was 10 microM.
2.3 Cell Culture. All cells were maintained in an incubator at 37 degrees C and 5% CO2 with 95% humidity. The PDC lines were cultured according to standard operating procedures established by the NCI PDMR. All PDCs were thawed and cultured in Matrigel-coated flasks prepared with a working solution of 1X Ham's F-12 nutrient mix, without supplementation (Invitrogen, cat. 11765054), 100 U/mL penicillin-streptomycin (Invitrogen, cat. 15140122), and 2.5% Matrigel (Corning Inc., cat. 354248) for the first three passages. The 857933-349-R-J2-PDC line was cultured in 6C/Colon 1B media, which includes advanced DMEM/F-12 (Thermo Fisher Scientific, cat. 12634028), 10 mM HEPES (Thermo Fisher Scientific, cat. 15630080), 1X GlutaMAX supplement (Thermo Fisher Scientific, cat. 35050061), 0.1 mg/mL primocin (InvivoGen, cat. ant-pm-2), 10% defined fetal bovine serum, heat inactivated (HyClone Laboratories Inc., cat. SH30070.03HI), 50% L-WRN conditioned media (ATCC, cat. CRL-3276), 1.25 mM N-Acetyl-L-cysteine (Sigma-Aldrich, cat. A9165), 10 mM nicotinamide (Sigma-Aldrich, cat. N0636), 1X B-27 supplement (Thermo Fisher Scientific, cat. 17504044), 1X N-2 supplement (Thermo Fisher Scientific, cat. 17502048), 10 microM Y-27632 dihydrochloride (Tocris Bioscience, cat. 1254), and 50 ng/mL human EGF recombinant protein (Thermo Fisher Scientific, cat. PHG0311). The 485176-168-R4-J1-PDC line was cultured in Panc media, which includes all 6C/Colon 1B media components plus 100 ng/mL human FGF-10 (Thermo Fisher Scientific, cat. 100-26), 500 nM SB-431542 (Selleckchem, cat. S1067), and gastrin (Tocris, cat. 3006).
[…]

[1] = second compound 0.0316 µM, first compound 0.0316 µM
[2] = second compound 0.0316 µM, first compound 0.1 µM
[3] = second compound 0.0316 µM, first compound 0.316 µM
[4] = second compound 0.0316 µM, first compound 1 µM
[5] = second compound 0.0316 µM, first compound 3.16 µM
[6] = second compound 0.0316 µM, first compound 10 µM
[7] = second compound 0.1 µM, first compound 0.0316 µM
[8] = second compound 0.1 µM, first compound 0.1 µM
[9] = second compound 0.1 µM, first compound 0.316 µM
[10] = second compound 0.1 µM, first compound 1 µM
[11] = second compound 0.1 µM, first compound 3.16 µM
[12] = second compound 0.1 µM, first compound 10 µM
[13] = second compound 0.316 µM, first compound 0.0316 µM
[14] = second compound 0.316 µM, first compound 0.1 µM
[15] = second compound 0.316 µM, first compound 0.316 µM
[16] = second compound 0.316 µM, first compound 1 µM
[17] = second compound 0.316 µM, first compound 3.16 µM
[18] = second compound 0.316 µM, first compound 10 µM
[19] = second compound 1 µM, first compound 0.0316 µM
[20] = second compound 1 µM, first compound 0.1 µM
[21] = second compound 1 µM, first compound 0.316 µM
[22] = second compound 1 µM, first compound 1 µM
[23] = second compound 1 µM, first compound 3.16 µM
[24] = second compound 1 µM, first compound 10 µM
[25] = second compound 3.16 µM, first compound 0.0316 µM
[26] = second compound 3.16 µM, first compound 0.1 µM
[27] = second compound 3.16 µM, first compound 0.316 µM
[28] = second compound 3.16 µM, first compound 1 µM
[29] = second compound 3.16 µM, first compound 3.16 µM
[30] = second compound 3.16 µM, first compound 10 µM
[31] = second compound 10 µM, first compound 0.0316 µM
[32] = second compound 10 µM, first compound 0.1 µM
[33] = second compound 10 µM, first compound 0.316 µM
[34] = second compound 10 µM, first compound 1 µM
[35] = second compound 10 µM, first compound 3.16 µM
[36] = second compound 10 µM, first compound 10 µM
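Also: spheroids exposed to compounds for 7 days.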
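For viability, T/C in this document: 100% = DMSO vehicle control viability.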

Which results are given for `CC(C)n1c(=O)n(C)c2cnc3cc(F)c(-c4ccc(OCCCN5CCCCC5)nc4)cc3c21` + CN(C)c1ccc(Nc2c3ccc(NC(=O)CCN4CCCC4)cc3nc3cc(NC(=O)CCN4CCCC4)ccc23)cc1?
IC50 (second compound 0.0316 µM): 2.41 µM; IC50 (second compound 0.1 µM): 2.21 µM; IC50 (second compound 0.316 µM): 0.67 µM; IC50 (second compound 1 µM): < 0.0316 µM; IC50 (second compound 3.16 µM): < 0.0316 µM; IC50 (second compound 10 µM): < 0.0316 µM; viability, T/C [1]: 95.7%; viability, T/C [2]: 100%; viability, T/C [3]: 88.1%; viability, T/C [4]: 80.4%; viability, T/C [5]: 40.4%; viability, T/C [6]: 12.9%; viability, T/C [7]: 93%; viability, T/C [8]: 108%; viability, T/C [9]: 92%; viability, T/C [10]: 84.9%; viability, T/C [11]: 34.3%; viability, T/C [12]: 9.41%; viability, T/C [13]: 82.2%; viability, T/C [14]: 79.6%; viability, T/C [15]: 69.3%; viability, T/C [16]: 37.6%; viability, T/C [17]: 20.3%; viability, T/C [18]: 4.16%; viability, T/C [19]: 18.5%; viability, T/C [20]: 16.8%; viability, T/C [21]: 19.4%; viability, T/C [22]: 8.58%; viability, T/C [23]: 6.36%; viability, T/C [24]: 1.3%; viability, T/C [25]: 1.45%; viability, T/C [26]: 1.78%; viability, T/C [27]: 1.74%; viability, T/C [28]: 1.06%; viability, T/C [29]: 1.03%; viability, T/C [30]: 0.15%; viability, T/C [31]: 0.27%; viability, T/C [32]: 0.4%; viability, T/C [33]: 0.34%; viability, T/C [34]: 0.37%; viability, T/C [35]: 0.25%; viability, T/C [36]: 0.28%

How did the IC50 (second compound 0.0316 µM) turn out when `CC1COCCN1c1cc(C2(S(C)(=N)=O)CC2)nc(-c2ccnc3[nH]ccc23)n1` (centres undefined) + CN(C)c1ccc(Nc2c3ccc(NC(=O)CCN4CCCC4)cc3nc3cc(NC(=O)CCN4CCCC4)ccc23)cc1 was run?
Its IC50 is 1.37 µM.

And the IC50 (second compound 0.1 µM)?
The IC50 was 1.19 µM.

What about the IC50 (second compound 0.316 µM) of the same molecule?
Its IC50 is 0.667 µM.

And the IC50 (second compound 1 µM)?
Its IC50 is < 0.0316 µM.

And the IC50 (second compound 3.16 µM)?
Its IC50 is < 0.0316 µM.

What about the IC50 (second compound 10 µM) of the same molecule?
The IC50 was < 0.0316 µM.

And the viability, T/C [1]?
The viability, T/C was 97.3%.

What about the viability, T/C [2] of the same molecule?
Its viability, T/C is 109%.

What about the viability, T/C [3] of the same molecule?
The viability, T/C was 99.8%.

And the viability, T/C [4]?
Its viability, T/C is 62.6%.

What about the viability, T/C [5] of the same molecule?
Its viability, T/C is 15.8%.

What about the viability, T/C [6] of the same molecule?
The viability, T/C was 6.43%.

And the viability, T/C [7]?
Its viability, T/C is 98.9%.

And the viability, T/C [8]?
The viability, T/C was 99.1%.

And the viability, T/C [9]?
The viability, T/C was 81%.

What about the viability, T/C [10] of the same molecule?
The viability, T/C was 59.1%.

What about the viability, T/C [11] of the same molecule?
Its viability, T/C is 16.8%.

And the viability, T/C [12]?
Its viability, T/C is 6.7%.

What about the viability, T/C [13] of the same molecule?
Its viability, T/C is 77.7%.

And the viability, T/C [14]?
Its viability, T/C is 88%.

And the viability, T/C [15]?
Its viability, T/C is 63%.

What about the viability, T/C [16] of the same molecule?
The viability, T/C was 41.6%.

What about the viability, T/C [17] of the same molecule?
Its viability, T/C is 16.7%.

And the viability, T/C [18]?
The viability, T/C was 4.97%.

And the viability, T/C [19]?
Its viability, T/C is 26%.

And the viability, T/C [20]?
The viability, T/C was 13.1%.

And the viability, T/C [21]?
Its viability, T/C is 20.5%.

What about the viability, T/C [22] of the same molecule?
The viability, T/C was 11.9%.

And the viability, T/C [23]?
The viability, T/C was 7.12%.

And the viability, T/C [24]?
The viability, T/C was 2.2%.

What about the viability, T/C [25] of the same molecule?
Its viability, T/C is 1.87%.

What about the viability, T/C [26] of the same molecule?
Its viability, T/C is 1.5%.

What about the viability, T/C [27] of the same molecule?
The viability, T/C was 1.71%.

What about the viability, T/C [28] of the same molecule?
Its viability, T/C is 0.99%.

What about the viability, T/C [29] of the same molecule?
The viability, T/C was 0.76%.

What about the viability, T/C [30] of the same molecule?
Its viability, T/C is 0.35%.

What about the viability, T/C [31] of the same molecule?
Its viability, T/C is 0.19%.

What about the viability, T/C [32] of the same molecule?
Its viability, T/C is 0.55%.

And the viability, T/C [33]?
Its viability, T/C is 0.48%.

And the viability, T/C [34]?
The viability, T/C was 0.52%.

And the viability, T/C [35]?
Its viability, T/C is 0.54%.

What about the viability, T/C [36] of the same molecule?
The viability, T/C was 0.25%.
